# Experimental data from PMC10010313, “A Phase I Study of Pelabresib (CPI-0610), a Small-Molecule Inhibitor of BET Proteins, in Patients with Relapsed or Refractory Lymphoma” (Cancer Research Communications, 2022).
# Where “and” joins values, the source holds several entries; their conditions need not be identical. Identical values can stand only once. Like-named read-outs stand apart in the source and are kept apart here.
# Legend:
# [1] = tested on: patients with relapsed or refractory lymphoma; assay: Treatment-emergent adverse events, phase 1 study 0610–01; type: in vivo
# Description: Study 0610–01 was a first-in-human phase 1, multi-center, open-label, dose-escalation study of pelabresib (CPI-0610) in patients with relapsed or refractory lymphoma (NCT01949883).
# Eligible patients for treatment with pelabresib were adults with relapsed non-Hodgkin or Hodgkin lymphoma after at least one prior therapy or who were not eligible for high-dose chemotherapy and autologous stem cell transplantation or had refused high-dose chemotherapy and autologous stem cell transplantation. Patients were required to have platelet count ≥75 × 10^9/L, absolute neutrophil count ≥1.0 × 10^9/L, and Eastern Cooperative Oncology Group performance status of 2 or less.
# (§1) Pelabresib was administered once daily (QD) for 14 days followed by a 7-day break, in continuous 21-day cycles to prevent/ameliorate thrombocytopenia. Cohorts of 3 to 6 patients were sequentially enrolled with increasing doses of pelabresib (6, 12, 24, 48, 80, 120, 170, 230, and 300 mg with the capsule formulation and 125 mg and 225 mg with the micronized tablet formulation) until the MTD was determined. Pelabresib was administered under fasting conditions (no food intake 2 hours before until 1 hour after study drug administration).
# (§2) The primary objective of the study was to determine the MTD of pelabresib with characterization of dose-limiting toxicities (DLT) as a primary endpoint. Secondary objectives included adverse events (AE) and serious adverse events (SAE); tumor response according to 2007 Revised Response Criteria for Malignant Lymphoma ([13]); plasma concentration of pelabresib; PK parameters; changes in expression of MYC and other genes sensitive to BET inhibition; and changes in levels of selected mRNAs that are expressed in PBMCs and are sensitive to BET inhibition.
# (§3) The MTD of pelabresib was defined as the highest dose that could be given without causing DLT in 33% or more of the patients treated at that dose (capsules or tablets). Dose-escalation followed a traditional “3 + 3” design based on the frequency of DLT. All patients who were treated with at least 1 dose of pelabresib were included in the Safety Population and used for all tabulations of demographic information, baseline characteristics, safety, PK, pharmacodynamic, and efficacy analyses.
# [2] = tested on: patients with relapsed or refractory lymphoma; assay: Dose-limiting toxicities / MTD determination (3 + 3 dose escalation); type: in vivo
# Description: as §1, §2, §3
# [3] = tested on: relapsed or refractory lymphoma; assay: Tumor response, 2007 Revised Response Criteria for Malignant Lymphoma; type: in vivo, human
# Description: as §2, §3
# IL8 = IL8 mRNA expression in patient whole blood (qPCR); type: in vivo, human
# Description: (§4) Whole (peripheral) blood samples were also collected at selected time points that coincided with PK sampling. Blood from patients was drawn into PAXgene blood RNA tubes (Becton Dickinson) at the clinical sites and shipped frozen to the Massachusetts General Hospital (MGH, Boston, MA) for processing. RNA was purified using a PAXgene Blood RNA Kit IVD (Qiagen) according to the manufacturer's protocol and quantitated using a Nanodrop 8000 (Thermo Scientific). RNA isolated from PBMCs was used to synthesize cDNA for qPCR analysis and gene expression was assessed by qPCR using a CCR1 or IL8 TaqMan assay. Housekeeping genes were assessed using B2M TaqMan assay, PPIB Universal Probe Library (UPL) or TaqMan assay. Relative gene expression for CCR1 and IL8 was determined after normalization to the geometric mean of the two housekeeping genes (B2M and PPIB).
# CCR1 = CCR1 mRNA expression in patient whole blood (qPCR); type: in vivo, human
# Description: as §4
# [4] = tested on: IL8 and CCR1 gene expression; assay: PK/PD analysis of maximum gene suppression versus exposure (Emax model); type: in vivo, human
# Description: To further explore the relationship between pelabresib exposure and suppression of gene expression, individual maximum gene suppression (the nadir of individual gene expression versus time profiles) was plotted as a continuous function of individual Cmax and AUC for both CCR1 and IL8. […] In total, based on this analysis, pharmacodynamic responses of at least 50% suppression in gene expression are evident at AUC and Cmax as low as 4,000 ng/hr/mL and 500 ng/mL, respectively. These exposures were achieved on average at capsule doses of 80 mg and above and were exceeded at both tablet doses.
# platelet count = assay: Platelet count values versus pelabresib dose; type: in vivo, human; conditions: QD 14 days on, 7 days off
# Description: To accommodate for different baseline platelet count values in different patients, changes in platelet count values were expressed as a fraction or ratio of the baseline value. There was a strong correlation between the Day 14:Day 1 platelet count ratio and pelabresib dose (R^2 = 0.81).
# [5] = human, in vivo
# Description: (§5) To characterize the plasma PK of pelabresib for the first dose and at steady state for multiple dosing, blood samples were taken before and at 0.5, 1, 1.5, 2, 3, 4, 6, 8, and 24 hours after the initial dose; before dosing on Day 8; before and at 0.5, 1, 1.5, 2, 3, 4, 6, 8, 24, 48, 72, 96, and 120 hours after the Day 14 dose; and prior to dosing on Day 1 of Cycle 2. Blood samples were centrifuged within 30 minutes of collection to harvest the plasma which was promptly stored in cryovials maintained at −80°C. The concentration of CPI-0610 in plasma samples was determined by reverse-phase high performance liquid chromatography with tandem mass spectrometric detection. The assay was validated and applied to the analysis of study samples according to the recommendations in the current FDA guidance. At the lowest concentration included in the calibration curves, which was 0.25 ng/mL, interday accuracy was within 0.3% of the nominal concentration and the precision was 3.0%. Interday accuracy ranged from 99.9 to 101.2% and the precision ranged from 4.0 to 6.0% for all other calibration standards. Actual time points were calculated as the difference between the blood sample collection time and the time that the drug was taken. The plasma concentration–time data were analyzed by noncompartmental methods using WinNonlin version 5.0.1 (Pharsight Corp). Area under the plasma concentration–time curve from the time of dosing to the time of last sample collected prior to administration of the next dose (AUC0–24) was estimated using the linear-log trapezoidal method. Apparent oral clearance (CL/F) was calculated as the dose divided by the AUC0–24 for the dose given on Day 14. Pharmacokinetic parameters are reported as the geometric mean [geometric coefficient of variation (CV%)] of the values for individual patients at each dose level unless otherwise indicated.
# MYC = tested on: MYC; parameters: method as in PMID 21949397; conditions: cited from earlier work
# [6] = tested on: ABC- diffuse large B-cell lymphoma (DLBCL) and Burkitt lymphoma (BL) cell lines; conditions: preclinical studies; cited from earlier work
# NF-κB signaling = conditions: preclinical studies; cited from earlier work
# [7] = crystalline form of pelabresib; cited from earlier work
# [8] = parameters: method as in PMID 21949397; conditions: cited from earlier work
# clinical = conditions: human, in vivo
# Description: as §5
# [9] = Plasma pharmacokinetics (LC-MS/MS, noncompartmental)
# Description: as §5
# [10] = including both tablet dose levels
# [11] = whole blood, 2, 6 and 8 hours after administration
# [12] = individual maximum gene suppression, inhibitory Emax model
compound,measurement,setting,value
Cc1noc2c1-c1ccccc1C(c1ccc(Cl)cc1)=N[C@H]2CC(N)=O [pelabresib],Patients who died while on study,"[1]; cause disease progression, none considered related to the investigational product",9 (14.1%) patients (%)
same,SAE disease progression,[1]; grade 5,7 patients
same,Anemia of Grade 3 or higher,"[1]; human, in vivo",7 (10.9%) patients (%)
same,Diarrhea of Grade 3 or higher,"[1]; human, in vivo",4 (6.3%) patients (%)
same,Gastrointestinal TEAEs,"[1]; human, in vivo",43 (67.2%) patients (%)
same,Patients with at least 1 TEAE,"[1]; human, in vivo",64 patients
same,Patients with at least 1 TEAE of Grade 3 or higher intensity,"[1]; human, in vivo",44 (68.8%) patients (%)
same,SAE diarrhea,"[1]; human, in vivo",4 patients
same,SAE disease progression,"[1]; human, in vivo",1 patient
same,SAE pain,"[1]; human, in vivo",2 patients
same,SAE pneumonia,"[1]; human, in vivo",2 patients
same,TEAE Anemia,"[1]; human, in vivo",16 (25.0) n (%)
same,TEAE Decreased appetite,"[1]; human, in vivo",17 (26.6) n (%)
same,TEAE Diarrhea,"[1]; human, in vivo",12 (18.8) n (%)
same,TEAE Dysgeusia,"[1]; human, in vivo",10 (15.6) n (%)
same,TEAE Fatigue,"[1]; human, in vivo",23 (35.9) n (%)
same,TEAE Hyperglycemia,"[1]; human, in vivo",12 (18.8) n (%)
same,TEAE Lymphopenia,"[1]; human, in vivo",13 (20.3) n (%)
same,TEAE Nausea,"[1]; human, in vivo",18 (28.1) n (%)
same,TEAE Thrombocytopenia events,"[1]; human, in vivo",29 (45.3) n (%)
same,TEAE Vomiting,"[1]; human, in vivo",13 (20.3) n (%)
same,TEAEs that led to treatment discontinuation,"[1]; human, in vivo",9 (14.1%) patients (%)
same,Thrombocytopenia events of Grade 3 or higher,"[1]; human, in vivo",13 (20.3%) patients (%)
same,Treatment-emergent SAEs,"[1]; human, in vivo",27 (42.2%) patients (%)
same,Recommended phase 2 dose (RP2D),"[2]; human, in vivo, 14 days",125 mg
same,DLTs: gastrointestinal (GI) events,"[2]; human, in vivo, 21 days",2
same,DLTs: hematologic events,"[2]; human, in vivo, 21 days",5
same,DLTs: rash,"[2]; human, in vivo, 21 days",1
same,Total DLT events considered for dose-escalation,"[2]; human, in vivo, 21 days",8
same,MTD,"[2]; tablet, QD for 14 days with a 7-day break",225 mg
same,Overall response rate (CR + PR),[3]; 4 of 64 patients,6.2%
same,Patients with prolonged (>6 months) stable disease,[3]; 64 patients,5 patients
same,Best overall response CR,[3]; Overall N = 64,2 (3.1%) n (%) and 2 (3.1) n (%)
same,Best overall response PR,[3]; Overall N = 64,2 (3.1%) n (%) and 2 (3.1) n (%)
same,Best overall response SD,[3]; Overall N = 64,21 (32.8%) n (%) and 21 (32.8) n (%)
same,Overall response rate (CR + PR),"[3]; Overall N = 64, all doses and formulations",4 (6.2) n (%)
same,Lowest dose at which complete remission was achieved,[3]; QD capsule,48 mg
same,"Median duration of response (CR or PR), (range)",[3]; patients with CR or PR,8.4 (6.1–46.1) weeks
same,Time to treatment (CR or PR),[3]; patients with CR or PR,4–18 cycles
same,Time to response (CR or PR),"[3]; patients with CR or PR, 21-day cycles",2–6 cycles
same,Dose level with maximum reduction of IL8 expression,IL8; capsule,120 mg
same,Capsule doses at whose exposures suppression of IL8 was much more apparent,IL8; [10],greater than or equal to 120 mg
same,Earliest time of decreased IL8 expression postdose,IL8; whole blood,≤ 2 h
same,Capsule dose above which appreciable changes in expression of IL8 were shown,IL8; [11],above 120 mg
same,Capsule doses at whose exposures suppression of CCR1 was much more apparent,CCR1; [10],≥ 170 mg
same,Earliest time of decreased CCR1 expression postdose,CCR1; whole blood,≤ 2 h
same,Capsule dose above which appreciable changes in expression of CCR1 were shown,CCR1; [11],> 170 mg
same,"Capsule doses at which these exposures (AUC 4,000, Cmax 500) were achieved on average",[4]; exceeded at both tablet doses,≥ 80 mg
same,AUC at which at least 50% suppression in gene expression is evident,[4]; [12],"≥ 4,000 ng/hr/mL"
same,Cmax at which at least 50% suppression in gene expression is evident,[4]; [12],≥ 500 ng/mL
same,Character of decreases in platelet count values,platelet count,"dose dependent, reversible, and non-cumulative"
same,Factor to convert tablet doses to capsule doses,[5],1.34
same,Range of time of peak plasma concentrations,[5],0.9 to 7.9 h
same,Mean AUC0–24,[5]; 225 mg,"20,700 ng/h/mL"
same,Accumulation at most,[5]; 14 days,≤ 40%
same,"Accumulation, mean (±SD)",[5]; 14 days,4.3 ± 1.0%
same,Time by which MYC expression had returned to its baseline value,MYC; single 30 mg/kg oral dose ref 11,≤ 12 h
same,Maximum inhibition of MYC expression in tumor tissue,"MYC; single 30 mg/kg oral dose, 4 hours postdosing, immunodeficient mice ref 11",75%
same,Time of maximum inhibition of MYC expression,"MYC; single 30 mg/kg oral dose, earliest postdosing time point assessed ref 11",4 h
same,Effect on viability,[6],loss of viability
same,Effect on NF-κB signaling activity,NF-κB signaling,downregulation
same,Aqueous solubility,[7],low
same,Clearance in mice,[8],rapid clearance
same,Cmax,clinical; 225 mg,2020 ng/mL
same,bioavailability,clinical; Exposure (bioavailability) of tablet greater than capsule,60%
same,half-life,clinical; Half-life (mean apparent terminal phase),~15 h
same,Tmax,clinical; Median time of peak plasma concentrations,1.9 h
same,Tmax,clinical; Median time to maximum plasma concentrations,2 h
same,Tmax,clinical; Range of time of peak plasma concentrations,0.5 to 7.4 h
same,half-life,"clinical; Terminal half-life, geometric mean (geometric CV)",15.3 h
same,"Accumulation, mean (±SD)","[9]; capsule formulation, 14 days of continuous QD dosing",20.5 ± 7.2%
same,half-life,"[9]; human, plasma, oral, Terminal half-life, geometric mean (geometric CV), capsule",11.6 h
same,Tablet dose approximately corresponding to the 120 mg capsule dose level,[9]; in vivo,~75 mg
same,"Apparent oral clearance, geometric mean (geometric CV)","[9]; tablet dosage form, Day 14",12.3 (27.2%) L/h
